Reference: patent EP2457916A1, “Compound for the covalent attachment of the chemiluminescent probe N-(4-Aminobutyl)-N-ethylisoluminol (ABEI) to target molecules and uses thereof” (DiaSorin S.p.A., priority 2010, dated 2012)

Experiment: Stability of compound (1a) dissolved in organic solvents, formation of the hydrolysis product (ABEI-glutaric acid) monitored by HPLC
Type: physicochemical
Method: The stability of compound (1a) dissolved in organic solvents (DMSO, acetonitrile) was evaluated at two different storage temperatures, -30°C and +4°C, by monitoring the formation of the hydrolysis product (ABEI-glutaric acid) using a chromatographic HPLC system.
Within the limits of reproducibility of the experimental determination, less than 2% of compound (1a) was hydrolysed to glutaric acid after 270 days at -30°C (Fig. 9), while less than 7% of compound (1a) was hydrolysed to acid at +4°C after 38 days (Fig. 10). This compares to the reported high instability of equivalent NHS esters which have half-lives of hours under physiological pH conditions. At 0°C and at pH 7, the half-life is typically 4-5 h [Lomant, A.J., Fairbanks, G. J. Mol. Biol. 1976, 104, 243-261], at pH 8.6 and 4°C this falls to only 10 min [Cuatrecaseas, P., Parikh, I. Biochemistry 1972, 11, 2291-2299].

With “N-(4-Aminobutyl)-N-ethylisoluminol anhydroglutarate [compound (1a)]” the “compound (1a) hydrolysed to glutaric acid” value (solution (DMSO), after 270 days at -30°C (Fig. 9)) was “less than 2%”, the “compound (1a) hydrolysed to acid” value (solution (DMSO), at +4°C after 38 days (Fig. 10)) was “less than 7%” and the “stability of solution (in DMSO)” value (stored at from +4°C to -30°C) was “highly stable”.
